Measurements: PMC10426190 (Breast Cancer Research : BCR, 2023)

Tested on: E2-induced (ER target) genes in MCF7
Experiment: Gene expression analysis by RNA-sequencing in MCF7 with E2 stimulation
Type: cell-based, human
Details: 24 h
Procedure: MCF7 were cultured in hormone deprivation media (with 10% charcoal-stripped FBS) for at least 3 days before assay. Trypsinized cells were seeded in a 12-well plate, stimulated with 1 nM β-estradiol (E2), and treated with/without 1 μM compounds for 24 h. Total RNA was extracted using the TRIzol reagent according to the manufacturer’s protocol. RNA purity and quantification were evaluated using the NanoDrop 2000 spectrophotometer (Thermo Scientific, USA). RNA integrity was assessed using the Agilent 2100 Bioanalyzer (Agilent Technologies, Santa Clara, CA, USA). Then the libraries were constructed using TruSeq Stranded mRNA LT Sample Prep Kit (Illumina, San Diego, CA, USA) according to the manufacturer’s instructions. The transcriptome sequencing and analysis were conducted by OE Biotech Co., Ltd. (Shanghai, China). The libraries were sequenced on an Illumina HiSeq X Ten platform and 150 bp paired-end reads were generated. […] Raw data (raw reads) of FASTq format were firstly processed using Trimmomatic and the low-quality reads were removed to obtain the clean reads. […] The clean reads were mapped to the human genome (GRCh38) using HISAT2 [27]. FPKM [28] of each gene was calculated using Cufflinks, and the read counts of each gene were obtained by HTSeqcount. Differential expression analysis was performed using the DESeq (2012) R package.
MCF7 with hormone-deprived pre-treatment were administrated ER ligands or not present with 1 nM E2 stimulation for 24 h incubation in a 12-well plate. Total mRNA was isolated from treated cells and sequenced on an Illumina HiSeq X Ten platform. FPKM of each gene was calculated using Cufflinks and Differential expression genes analysis by using the DESeq (2012) R package. […] T47D EFM-19 and HCC1500 cells were grown in RPMI media supplemented with 10% charcoal-stripped FBS for 14 days and then treated with ER antagonist (1 μM) or DMSO in the presence E2 (1nM) stimulation for 24 h before RNA isolation and gene expression analysis as described in methods. […] The uteruses were harvested 24 h after the final doses and stained by toluidine blue. Endometrial height was assessed from the basement membrane to the luminal border (scale bar in green lines: 200 μm), Arrows indicate the uterine epithelium (e).

## CC/C(=C(\c1ccc(O)cc1)c1ccc(OCCN(C)C)cc1)c1ccccc1 [4-OH-tamoxifen]
MCF7, 1 nM E2 + 1 μM compound
  percentage of E2-induced genes suppressed, Relative to 1 nM E2 Down%: 59.1%
MCF7, 1 nM E2 + 1 μM compound, foldchange > twofold
  percentage of genes upregulated, Relative to 1 nM E2 Up%: 5.8%
MCF7, 1 nM E2 ± 1 μM compound
  ACTG2 expression: 2.33 FPKM
  ADCY1 expression: 19.17 FPKM
  AGR3 expression: 25.86 FPKM
  AMZ1 expression: 3.21 FPKM
  ANLN expression: 22.77 FPKM
  ARHGAP36 expression: 1.42 FPKM
  ASCL1 expression: 2.50 FPKM
  ASF1B expression: 33.57 FPKM
  ASMTL-2 expression: 3.33 FPKM
  ATAD2 expression: 29.15 FPKM
  ATRNL1 expression: 0.29 FPKM
  AURKB expression: 18.53 FPKM
  BIRC5 expression: 26.74 FPKM
  BLM expression: 3.14 FPKM
  BMPER expression: 0.18 FPKM
  BRCA1 expression: 3.58 FPKM
  BRCA2 expression: 2.51 FPKM
  BRIP1 expression: 22.65 FPKM
  BUB1B expression: 9.15 FPKM
  C1orf226 expression: 5.19 FPKM
  C5AR2 expression: 2.33 FPKM
  CA2 expression: 157.09 FPKM
  CA12 expression: 46.02 FPKM
  CALCR expression: 4.03 FPKM
  CAV1 expression: 5.56 FPKM
  CCN5 expression: 29.67 FPKM
  CCNA2 expression: 17.16 FPKM
  CCNE2 expression: 7.22 FPKM
  CD99-2 expression: 0.97 FPKM
  CDC6 expression: 6.08 FPKM
  CDC25A expression: 2.63 FPKM
  CDC45 expression: 5.79 FPKM
  CDCA3 expression: 6.21 FPKM
  CDCA4 expression: 15.28 FPKM
  CDCA5 expression: 13.04 FPKM
  CDCA7 expression: 2.77 FPKM
  CDH26 expression: 0.69 FPKM
  CDK1 expression: 15.34 FPKM
  CDT1 expression: 21.06 FPKM
  CENPI expression: 3.21 FPKM
  CENPU expression: 5.41 FPKM
  CHAF1B expression: 2.31 FPKM
  CHEK1 expression: 2.63 FPKM
  CKS1B expression: 49.15 FPKM
  CLSPN expression: 1.96 FPKM
  COL12A1 expression: 3.75 FPKM
  CXCL12 expression: 3.86 FPKM
  DDIAS expression: 4.48 FPKM
  DHRSX-2 expression: 1.54 FPKM
  DKK1 expression: 41.67 FPKM
  DNA2 expression: 3.39 FPKM
  DPYSL5 expression: 0.63 FPKM
  DSCC1 expression: 4.49 FPKM
  DTL expression: 2.21 FPKM
  E2F1 expression: 8.56 FPKM
  E2F2 expression: 1.96 FPKM
  E2F7 expression: 3.12 FPKM
  E2F8 expression: 4.23 FPKM
  ELOVL2 expression: 7.72 FPKM
  EME1 expression: 4.92 FPKM
  ERCC6L expression: 1.82 FPKM
  ESCO2 expression: 2.98 FPKM
  ESPL1 expression: 7.94 FPKM
  EXO1 expression: 3.27 FPKM
  FAM20A expression: 2.46 FPKM
  FAM111B expression: 4.32 FPKM
  FANCA expression: 10.70 FPKM
  FANCD2 expression: 6.23 FPKM
  FANCI expression: 20.35 FPKM
  FEN1 expression: 31.76 FPKM
  FIGNL1 expression: 2.46 FPKM
  FKBP4 expression: 79.90 FPKM
  GATA4 expression: 0.08 FPKM
  GFRA1 expression: 84.37 FPKM
  GINS1 expression: 11.19 FPKM
  GINS2 expression: 12.84 FPKM
  GJA1 expression: 0.31 FPKM
  GLA expression: 41.63 FPKM
  GP1BB expression: 0.99 FPKM
  GPR68 expression: 0.38 FPKM
  GPRIN1 expression: 4.22 FPKM
  GREB1 expression: 4.76 FPKM
  H2AX expression: 94.16 FPKM
  HBB expression: 2.54 FPKM
  HELLS expression: 3.37 FPKM
  HEY2 expression: 1.93 FPKM
  HMGB2 expression: 125.20 FPKM
  IGFBP4 expression: 56.87 FPKM
  IGSF1 expression: 3.37 FPKM
  ITGA2B expression: 0.44 FPKM
  KIF11 expression: 13.08 FPKM
  KIF18B expression: 3.84 FPKM
  KIFC1 expression: 15.12 FPKM
  KLK11 expression: 4.66 FPKM
  KNL1 expression: 4.05 FPKM
  KNTC1 expression: 6.86 FPKM
  LHX2 expression: 1.62 FPKM
  LIG1 expression: 23.58 FPKM
  LMNB1 expression: 53.86 FPKM
  MAD2L1 expression: 7.76 FPKM
  MCM2 expression: 31.78 FPKM
  MCM3 expression: 34.54 FPKM
  MCM4 expression: 49.01 FPKM
  MCM5 expression: 13.27 FPKM
  MCM6 expression: 24.55 FPKM
  MCM7 expression: 84.30 FPKM
  MCM10 expression: 3.64 FPKM
  MELK expression: 11.34 FPKM
  MKI67 expression: 21.80 FPKM
  MYB expression: 5.81 FPKM
  MYBL1 expression: 1.32 FPKM
  MYBL2 expression: 46.03 FPKM
  NCAPG2 expression: 19.25 FPKM
  NCAPG expression: 7.03 FPKM
  NPY1R expression: 8.44 FPKM
  ORC1 expression: 3.13 FPKM
  ORC6 expression: 7.62 FPKM
  PAQR4 expression: 12.98 FPKM
  PBK expression: 16.47 FPKM
  PCLAF expression: 33.01 FPKM
  PCNA expression: 59.31 FPKM
  PDZK1 expression: 3.59 FPKM
  PGR expression: 1.93 FPKM
  PKIB expression: 26.05 FPKM
  PKMYT1 expression: 12.25 FPKM
  POLA1 expression: 3.09 FPKM
  POLA2 expression: 5.57 FPKM
  POLD1 expression: 11.86 FPKM
  POLE2 expression: 2.61 FPKM
  POLE expression: 12.83 FPKM
  POLQ expression: 2.74 FPKM
  PRIM1 expression: 10.94 FPKM
  PRSS23 expression: 68.31 FPKM
  RAB31 expression: 11.89 FPKM
  RAD51AP1 expression: 5.44 FPKM
  RAD51 expression: 4.02 FPKM
  RAD54L expression: 4.39 FPKM
  RAMP3 expression: 3.44 FPKM
  RAPGEFL1 expression: 6.63 FPKM
  RBL1 expression: 2.35 FPKM
  RECQL4 expression: 13.74 FPKM
  RERG expression: 3.48 FPKM
  RET expression: 4.49 FPKM
  RFC2 expression: 18.64 FPKM
  RFC3 expression: 4.62 FPKM
  RFC4 expression: 14.31 FPKM
  RNASEH2A expression: 30.81 FPKM
  RRM1 expression: 20.41 FPKM
  RRM2 expression: 33.29 FPKM
  RUBCNL expression: 1.01 FPKM
  SDK2 expression: 0.95 FPKM
  SFXN2 expression: 8.23 FPKM
  SHCBP1 expression: 3.43 FPKM
  SKA3 expression: 5.48 FPKM
  SLC6A14 expression: 24.37 FPKM
  SMC2 expression: 7.20 FPKM
  SPC24 expression: 7.06 FPKM
  SPC25 expression: 7.65 FPKM
  STC2 expression: 84.89 FPKM
  TACC3 expression: 21.35 FPKM
  TCF19 expression: 8.96 FPKM
  TCOF1 expression: 10.86 FPKM
  TGM2 expression: 3.69 FPKM
  TICRR expression: 4.37 FPKM
  TK1 expression: 57.95 FPKM
  TMEM26 expression: 2.14 FPKM
  TMEM164 expression: 10.65 FPKM
  TONSL expression: 9.87 FPKM
  TOP2A expression: 30.91 FPKM
  TP73 expression: 1.32 FPKM
  TRIP13 expression: 8.37 FPKM
  TUBA1B expression: 555.45 FPKM
  TUBB expression: 291.22 FPKM
  TYMS expression: 31.45 FPKM
  UBE2C expression: 31.96 FPKM
  UBE2T expression: 41.94 FPKM
  UHRF1 expression: 9.20 FPKM
  UNG expression: 32.49 FPKM
  WDHD1 expression: 4.95 FPKM
  WDR62 expression: 5.88 FPKM
  WDR76 expression: 1.87 FPKM
  XRCC2 expression: 3.37 FPKM
  XRCC3 expression: 8.89 FPKM
  ZGRF1 expression: 1.82 FPKM
  ZNF367 expression: 5.84 FPKM
